Read-outs that look alike come from different tables or passages of the source.
What was measured:
HBsAg = experiment: microbe, parasite or virus in culture; format: cell-based, HBV; conditions: Hepatitis B virus, read-out: HBsAg IC50
[1] = test system: primary human hepatocyte (PHH); experiment: Cytotoxicity in PHH natural infection assay (Cell Counting Kit-8); format: cell-based; conditions: therapeutic index; CC50 by CCK8 in PHH over HBsAg IC50
Protocol: Detailed procedures regarding primary human hepatocyte (PHH) HBV natural infection assay are described as below. One tube of frozen PHH (10 million cells) was thawed in 37° C. water bath and then transferred to 20 mL of PHH thawing medium (Sigma, InVitroGRO HT Medium, Cat. 503319) with gently mixing. The cells were then centrifuged at […] for 5 min, the supernatant was discarded and the tube was refilled with 25 mL of PHH plating medium (Sigma, InVitroGRO CP Medium, Cat. 503317). The tube was shaken very gently to re-suspend all cells, and then 50 μl of cells were transferred to each well of a 384-well collagen I coated plate with appropriate liquid handling equipment, e.g. Integra VIAFLO384 or Agilent Bravo. The cells were then cultured for 24 hours in a cell incubator. For HBV infection, after PHH attachment on the culture plate, the plating medium was removed and replenished with PHH culture medium containing HBV virus. The PHH culture medium was prepared with Dulbecco's Modified Eagle Medium (DMEM)/F12 (1:1 in volume ratio) containing 10% fetal bovine serum (Gibco, Cat.10099141), 5 ng/mL human epidermal growth factor (Gibco, Cat.PHG031 IL), 20 ng/mL dexamethasone (Sigma, Cat.D4902-100 mg), 250 ng/mL human recombinant insulin (Gibco, Cat.41400045) and 100 U/mL penicillin. HBV virus at 200 genome equivalent (GE) per cell with 4% PEG8000 (Sigma, Cat.P1458) containing culture medium were added to the PHH culture medium for infection. The cells were then cultured for 24 hours in cell incubator. Then the cell culture supernatant was removed. The HBV-infected PHH were cultured with sandwich culture method with PHH culture medium containing 1% DMSO and 0.25 mg/mL matrix gel for 72 hours. The supernatant was then refreshed with PHH culture medium containing different concentrations of testing compounds for two times with 72-hour interval. At the end of treatment, the supernatant was collected for viral markers measurements, including HBsAg, HBeAg, HBV DNA and cytotoxicity. HBsAg and HBeAg were detected using alphalisa method using their specific antibodies. For HBV DNA detection, HBV DNA Quantitative Fluorescence Diagnostic Kit (Sansure Biotech Inc.) was used following the manufacture's protocol. Cytotoxicity was determined using Cell Counting Kit-8 (CCK8, Dojindo Molecular Technologies, Inc.).

[2] = Single dose pharmacokinetics (PK) study in male C57BL/6 mouse; format: in vivo; conditions: for clearance / half-life / Vd / AUC(0-t): male; for clearance / half-life / Vd: C57BL/6, plasma; for clearance / half-life / Vd / F: mouse; for Vd: read-out: VSS; for AUC(0-t): C57BL/6, mouse plasma; for F: dose normalized AUC0-last
Protocol: Single Dose Pharmacokinetics (PK) Study in Male C57BL/6 Mouse Pharmacokinetic properties of selected compounds were assessed by single dose PK studies in Male C57BL/6 mouse (vendor: Beijing Vital River Laboratory Animal Technology Co., Ltd). Briefly, two groups of animals were administered a single dose of respective compound intravenously (IV, bolus) at 1 mg/kg or orally (PO, by gavage) at 10 mg/kg or 30 mg/kg. […] After centrifugation, the resulting plasma was transferred to clean tubes for bioanalysis with LC/MS/MS. The pharmacokinetic parameters were calculated using non-compartmental analysis. The volume of distribution (Vss), half-life (T1/2) and clearance (CL) were obtained based on the plasma concentration-time curve after IV dose. The peak concentration (Cmax) was recorded directly from experimental observations after PO dose. The area under the plasma concentration-time curve (AUC0-last and AUC0-24 h) was calculated using the linear trapezoidal rule up to the last detectable concentration. The bioavailability (F) was calculated based on the dose normalized AUC0-last after IV and PO dose. The Vss of a drug represents the degree to which a drug is distributed in body tissue rather than the plasma. Vss is directly proportional with the amount of drug distributed into tissue. A higher Vss indicates a greater amount of tissue distribution.

HBeAg = experiment: microbe, parasite or virus in culture; format: cell-based, HBV; conditions: Hepatitis B virus, read-out: HBeAg IC50
[3] = Human microsome stability assay; format: in vitro ADME; conditions: 1 μM compound, 0.5 mg/mL microsomal protein, 37° C.; detection limit 6.15 mL/min/kg
Protocol: Human Microsome Stability Assay The human microsomal stability assay is used for early assessment of metabolic stability of a test compound in human liver microsomes. Human liver microsomes (Cat. […] The reactions were initiated by adding NADPH regenerating system. […] Following precipitation and centrifugation, the amount of compound remaining in the samples were determined by LC-MS/MS. Controls of no NADPH regenerating system at zero and 30 minutes were also prepared and analyzed.

[4] = IV bolus 1 mg/kg, read-out: IV AUC0-24h
[5] = PO 30 mg/kg single dose, read-out: PO AUC0-24h
[6] = PO 10 mg/kg single dose, read-out: PO AUC0-24h

Row | SMILES | IC50 (HBsAg) [nM] | TI (CC50/IC50 HBsAg) [1] | clearance ([2]; IV bolus 1 mg/kg) [mL/min/kg] | half-life ([2]; IV bolus 1 mg/kg) [h] | Vd ([2]; IV bolus 1 mg/kg) [L/kg] | AUC(0-t) [2, 4] [µg·h/mL] | AUC(0-t) [2, 5] [µg·h/mL] | F ([2]; PO 30 mg/kg vs IV) [%] | IC50 (HBeAg) [nM] | Clearance of human microsome [3] [mL/min/kg] | AUC(0-t) [2, 6] [µg·h/mL] | F ([2]; PO 10 mg/kg vs IV 1 mg/kg) [%]
1 | CS(=O)(=O)C1(c2ccc(C(=O)NC34CC(c5nc(-c6ccc(Cl)cc6)cs5)(C3)C4)o2)CC1 [Example 1, N-[3-[4-(4-chlorophenyl)thiazol-2-yl]-1-bicyclo[1.1.1]pentanyl]-5-(1-methylsulfonylcyclopropyl)furan-2-carboxamide] | 160 | 27.88 | 0.2 | 23.6 | 0.4 | 42.7 | 1310 | 102 | 120 | ≤6.15 |  | 
2 | CS(=O)(=O)C1(c2ccc(C(=O)NC34CC(c5noc(-c6ccc(Cl)cc6)n5)(C3)C4)o2)CC1 [Example 40, N-[3-[5-(4-chlorophenyl)-1,2,4-oxadiazol-3-yl]-1-bicyclo[1.1.1]pentanyl]-5-(1-methylsulfonylcyclopropyl)furan-2-carboxamide] | 140 | 46.00 | 0.85 | 12 | 0.83 | 14.9 | 80.8 | 18 | 100 | ≤6.15 |  | 
3 | CS(=O)(=O)C1(c2ccc(C(=O)NC34CC(c5cnn(-c6ccc(Cl)cc6)n5)(C3)C4)o2)CC1 [Example 30, N-[3-[2-(4-chlorophenyl)triazol-4-yl]-1-bicyclo[1.1.1]pentanyl]-5-(1-methylsulfonylcyclopropyl)furan-2-carboxamide] | 60 | 148.67 | 0.19 | 48.4 | 0.74 | 27 | 370 | 46 | 40 | ≤6.15 |  | 
4 | CS(=O)(=O)C1(c2nsc(C(=O)NC34CC(c5noc(-c6ccc(Cl)cc6)n5)(C3)C4)n2)CC1 [Example 41, N-[3-[5-(4-chlorophenyl)-1,2,4-oxadiazol-3-yl]-1-bicyclo[1.1.1]pentanyl]-3-(1-methylsulfonylcyclopropyl)-1,2,4-thiadiazole-5-carboxamide] | 130 | 65.54 | 0.11 | 67.3 | 0.62 | 34 |  |  | 80 | 14.14 | 59.7 | 18
5 | CS(=O)(=O)C1(c2ccc(C(=O)NC34CC(c5ncc(-c6ccc(Cl)cc6)s5)(C3)C4)o2)CC1 [Example 19, N-[3-[5-(4-chlorophenyl)thiazol-2-yl]-1-bicyclo[1.1.1]pentanyl]-5-(1-methylsulfonylcyclopropyl)furan-2-carboxamide] | 210 | >47.62 |  |  |  |  |  |  | 160 | ≤6.15 |  | 
6 | CS(=O)(=O)C1(c2nsc(C(=O)NC34CC(c5ccnc(-c6ccc(Cl)cc6)n5)(C3)C4)n2)CC1 [Example 48, N-[3-[2-(4-chlorophenyl)pyrimidin-4-yl]-1-bicyclo[1.1.1]pentanyl]-3-(1-methylsulfonylcyclopropyl)-1,2,4-thiadiazole-5-carboxamide] | 70 | 127.43 | 0.07 | 53.7 | 0.29 | 70.2 |  |  | 70 | 10.71 | 629 | 92
7 | CS(=O)(=O)C1(c2nsc(C(=O)NC34CC(c5cnn(-c6ccc(Cl)cc6)n5)(C3)C4)n2)CC1 [Example 60, N-[3-[2-(4-chlorophenyl)triazol-4-yl]-1-bicyclo[1.1.1]pentanyl]-3-(1-methylsulfonylcyclopropyl)-1,2,4-thiadiazole-5-carboxamide] | 17 | 261.76 | 0.1 | 62.4 | 0.55 | 38.1 | 154 | 14 | 17 | ≤6.15 |  | 
8 | CS(=O)(=O)C1(c2ccc(C(=O)NC34CC(c5ncc(-c6ccc(Cl)c(Cl)c6)s5)(C3)C4)o2)CC1 [Example 21, N-[3-[5-(3,4-dichlorophenyl)thiazol-2-yl]-1-bicyclo[1.1.1]pentanyl]-5-(1-methylsulfonylcyclopropyl)furan-2-carboxamide] | 70 | 29.86 |  |  |  |  |  |  | 70 | 6.66 |  | 
9 | CS(=O)(=O)Cc1nsc(C(=O)NC23CC(c4nc(-c5ccc(Cl)cc5)no4)(C2)C3)n1 [Example 33, N-[3-[3-(4-chlorophenyl)-1,2,4-oxadiazol-5-yl]-1-bicyclo[1.1.1]pentanyl]-3-(methylsulfonylmethyl)-1,2,4-thiadiazole-5-carboxamide] | 440 | >22.73 |  |  |  |  |  |  | 370 | ≤6.15 |  | 
10 | CS(=O)(=O)C1(c2ccc(C(=O)NC34CC(c5ccn(-c6ccc(Cl)cc6)n5)(C3)C4)o2)CC1 [Example 42, N-[3-[1-(4-chlorophenyl)pyrazol-3-yl]-1-bicyclo[1.1.1]pentanyl]-5-(1-methylsulfonylcyclopropyl)furan-2-carboxamide] | 590 | 13.39 |  |  |  |  |  |  | 340 | 8.21 |  | 
11 | CS(=O)(=O)C1(c2ncc(C(=O)NC34CC(c5nc(-c6ccc(Cl)cc6)cs5)(C3)C4)o2)CC1 [Example 6, N-[3-[4-(4-chlorophenyl)thiazol-2-yl]-1-bicyclo[1.1.1]pentanyl]-2-(1-methylsulfonylcyclopropyl)oxazole-5-carboxamide] | 80 | 81.63 |  |  |  |  |  |  | 50 | ≤6.15 |  | 
12 | CS(=O)(=O)C1(c2ccc(C(=O)NC34CC(c5nc(-c6ccccc6)cs5)(C3)C4)o2)CC1 [Example 13, 5-(1-methylsulfonylcyclopropyl)-N-[3-(4-phenylthiazol-2-yl)-1-bicyclo[1.1.1]pentanyl]furan-2-carboxamide] | 770 | 12.38 |  |  |  |  |  |  | 560 | ≤6.15 |  | 

— patent US20230278997A1, “BICYCLO[1.1.1]PENTANE COMPOUNDS FOR THE TREATMENT AND PROPHYLAXIS OF HEPATITIS B VIRUS INFECTION” (Hoffmann-La Roche Inc., priority 2020, published 2023)
